Measured values published in patent US20210189342A1, “COMPOSITIONS AND METHODS FOR MODULATING MONOCYTE AND MACROPHAGE INFLAMMATORY PHENOTYPES AND IMMUNOTHERAPY USES THEREOF” (Verseau Therapeutics, Inc., priority 2018, published 2021).

What follows are substances tested on SIGLEC9 (assay: siRNA dose response, SIGLEC9 mRNA knockdown, Dual-Glo Luciferase Assay). Conditions: Hepa1-6 + reporter plasmid, 24 hr.
Format: cell-based, human
Protocol: (§1) Dose response curves for siRNAs were generated in vitro using a variety of cell lines according to Table 4.
(§2) Briefly, cells were seeded in 96-well plates and reverse transfected with siRNA, Lipofectamine® 2000 (0.5 uL/well; ThermoFisher), and, in some cases, a reporter plasmid (50 ng/well). The reporter plasmid (psiCHECK™-2, Promega) encoded both firefly luciferase and the gene of interest fused to renilla luciferase; silencing of the gene of interest results in proportional silencing of renilla luciferase but leaves firefly luciferase unaffected as an internal control.
(§3) After 24 hr incubation at 37° C., mRNA knockdown was measured using an endpoint assay. For targets without a reporter plasmid, a branched DNA (bDNA) assay was performed according to the manufacturer's instructions (QuantiGene® Singleplex Gene Expression Assay, ThermoFisher) to measure both the target gene and GAPDH (housekeeping gene) mRNA. Data are plotted as siRNA concentration (nM) vs. remaining mRNA (ratio of target gene to GAPDH, normalized to mock siRNA-transfected cells). For targets with a reporter plasmid, a Dual-Glo® Luciferase Assay was performed according to the manufacturer's instructions (Promega) to measure firefly and renilla luciferase expression. Data are plotted as siRNA concentration (nM) vs. remaining mRNA (ratio of renilla to firefly luminescence, normalized to mock siRNA-transfected cells).
(§4) For all dose response curves, a 4-parameter logistic model was applied to determine the IC50 of each siRNA sequence (Table 5 and FIG. 2). Data shown in Table 5 and FIG. 2 represent the mean of quadruplicates, +/−standard deviation.

Substance | IC50
XD-09193: siRNA targeting SIGLEC9 (sense 5'-guAuccAcAGucuuGGGAAdTsdT-3'; antisense 5'-UUCCcAAGACUGUGGAuACdTsdT-3'; RNA with 2'-O-methyl and phosphorothioate modifications, case key not given here, as printed in the source, key not given here) | 0.459 nM
XD-09192: siRNA targeting SIGLEC9 (sense 5'-caGuAuccAcAGucuuGGGdTsdT-3'; antisense 5'-CCcAAGACUGUGGAuACUGdTsdT-3'; RNA with 2'-O-methyl and phosphorothioate modifications, case key not given here, as printed in the source, key not given here) | 0.236 nM
XD-09182: siRNA targeting SIGLEC9 (sense 5'-ucGcAuGGcuGGAuuuAccdTsdT-3'; antisense 5'-GGuAAAUCcAGCcAUGCGAdTsdT-3'; RNA with 2'-O-methyl and phosphorothioate modifications, case key not given here, as printed in the source, key not given here) | 0.837 nM
XD-09186: siRNA targeting SIGLEC9 (sense 5'-ucAccGGcucucuguGAAudTsdT-3'; antisense 5'-AUUcAcAGAGAGCCGGUGAdTsdT-3'; RNA with 2'-O-methyl and phosphorothioate modifications, case key not given here, as printed in the source, key not given here) | 0.488 nM
XD-09188: siRNA targeting SIGLEC9 (sense 5'-gaAcAAGAccGuccAucucdTsdT-3'; antisense 5'-GAGAUGGACGGUCUUGUUCdTsdT-3'; RNA with 2'-O-methyl and phosphorothioate modifications, case key not given here, as printed in the source, key not given here) | 0.148 nM
XD-09195: siRNA targeting SIGLEC9 (sense 5'-gcGuGGGAGAuAcgGGcAudTsdT-3'; antisense 5'-AUGCCCGuAUCUCCcACGCdTsdT-3'; as printed in the source, key not given here) | 0.125 nM
XD-09180: siRNA targeting SIGLEC9 (sense 5'-acAAGuAAAcuGcuGacGAdTsdT-3'; antisense 5'-UCGUcAGcAGUUuACUUGUdTsdT-3'; RNA with 2'-O-methyl and phosphorothioate modifications, case key not given here, as printed in the source, key not given here) | 0.04 nM
XD-09181: siRNA targeting SIGLEC9 (sense 5'-guAAAcuGcuGAcgAuGcAdTsdT-3'; antisense 5'-UGcAUCGUcAGcAGUUuACdTsdT-3'; RNA with 2'-O-methyl and phosphorothioate modifications, case key not given here, as printed in the source, key not given here) | 0.286 nM
XD-09189: siRNA targeting SIGLEC9 (sense 5'-agAccGuccAucucAAcGudTsdT-3'; antisense 5'-ACGUUGAGAUGGACGGUCUdTsdT-3'; RNA with 2'-O-methyl and phosphorothioate modifications, case key not given here, as printed in the source, key not given here) | 0.694 nM
XD-09194: siRNA targeting SIGLEC9 (sense 5'-cucAGcAGGucuAccuGAAdTsdT-3'; antisense 5'-UUcAGGuAGACCUGCUGAGdTsdT-3'; RNA with 2'-O-methyl and phosphorothioate modifications, case key not given here, as printed in the source, key not given here) | 5.63 nM
XD-09197: siRNA targeting SIGLEC9 (sense 5'-ggAGAuAcGGGcAuAGAGGdTsdT-3'; antisense 5'-CCUCuAUGCCCGuAUCUCCdTsdT-3'; as printed in the source, key not given here) | 0.851 nM
XD-09184: siRNA targeting SIGLEC9 (sense 5'-ggGccAAuAcAGAccAGGAdTsdT-3'; antisense 5'-UCCUGGUCUGuAUUGGCCCdTsdT-3'; RNA with 2'-O-methyl and phosphorothioate modifications, case key not given here, as printed in the source, key not given here) | 0.127 nM
XD-09183: siRNA targeting SIGLEC9 (sense 5'-guuccGGGAAGGGgccAAudTsdT-3'; antisense 5'-AUUGGCCCCUUCCCGGAACdTsdT-3'; RNA with 2'-O-methyl and phosphorothioate modifications, case key not given here, as printed in the source, key not given here) | 0.229 nM
XD-09190: siRNA targeting SIGLEC9 (sense 5'-ccGuccAucucAAcGuGucdTsdT-3'; antisense 5'-GAcACGUUGAGAUGGACGGdTsdT-3'; RNA with 2'-O-methyl and phosphorothioate modifications, case key not given here, as printed in the source, key not given here) | 0.905 nM
XD-09185: siRNA targeting SIGLEC9 (sense 5'-ccAGAAGAAGuGAuGcGGGdTsdT-3'; antisense 5'-CCCGcAUcACUUCUUCUGGdTsdT-3'; RNA with 2'-O-methyl and phosphorothioate modifications, case key not given here, as printed in the source, key not given here) | 0.094 nM
XD-09187: siRNA targeting SIGLEC9 (sense 5'-gaccAcGaacAAGaccGucdTsdT-3'; antisense 5'-GACGGUCUUGUUCGUGGUCdTsdT-3'; RNA with 2'-O-methyl and phosphorothioate modifications, case key not given here, as printed in the source, key not given here) | 0.406 nM

These substances were tested on CD84 (assay: siRNA dose response, CD84 mRNA knockdown, Dual-Glo Luciferase Assay). Conditions: Hepa1-6 + reporter plasmid, 24 hr.
Format: cell-based, human
Protocol: as §1, §2, §3, §4

Substance | IC50
XD-09616: siRNA targeting CD84 (sense 5'-gcAccAAcuAccAuuAGcAdTsdT-3'; antisense 5'-AGCuAAUGGuAGUUGGUGCdTsdT-3'; RNA with 2'-O-methyl and phosphorothioate modifications, case key not given here, as printed in the source, key not given here) | 0.067 nM
XD-09614: siRNA targeting CD84 (sense 5'-gaAcAcAGuuuAuuccGAAdTsdT-3'; antisense 5'-UUCGGAAuAAACUGUGUUCdTsdT-3'; as printed in the source, key not given here) | < 0.005 nM
XD-09612: siRNA targeting CD84 (sense 5'-gguAAuGuccuucaAAucudTsdT-3'; antisense 5'-AGAUUUGAAGGAcAUuACCdTsdT-3'; as printed in the source, key not given here) | 0.351 nM
XD-09618: siRNA targeting CD84 (sense 5'-gguAucAGGAAucaAAAuudTsdT-3'; antisense 5'-AAUUUUGAUUCCUGAuACCdTsdT-3'; as printed in the source, key not given here) | < 0.005 nM
XD-09617: siRNA targeting CD84 (sense 5'-cacuAcAGuuAAcgcuGAAdTsdT-3'; antisense 5'-UUcAGCGUuAACUGuAGUGdTsdT-3'; as printed in the source, key not given here) | 0.01 nM
XD-09613: siRNA targeting CD84 (sense 5'-ucAuAuGAucAuuuAAGGAdTsdT-3'; antisense 5'-UCCUuAAAUGAUcAuAUGAdTsdT-3'; RNA with 2'-O-methyl and phosphorothioate modifications, case key not given here, as printed in the source, key not given here) | 0.241 nM
XD-09611: siRNA targeting CD84 (sense 5'-gaGGGuAAuGuccuucAAAdTsdT-3'; antisense 5'-UUUGAAGGAcAUuACCCUCdTsdT-3'; as printed in the source, key not given here) | 0.082 nM
XD-09610: siRNA targeting CD84 (sense 5'-accAAAAAuuAcAcAGAGudTsdT-3'; antisense 5'-ACUCUGUGuAAUUUUUGGUdTsdT-3'; as printed in the source, key not given here) | 0.047 nM
XD-09615: siRNA targeting CD84 (sense 5'-ggAAcuGGGuAuAauccAAdTsdT-3'; antisense 5'-UUGGAUuAuACCcAGUUCCdTsdT-3'; as printed in the source, key not given here) | 0.048 nM
XD-09619: siRNA targeting CD84 (sense 5'-ccuuAcAGcAuAAcuAAuudTsdT-3'; antisense 5'-AAUuAGUuAUGCUGuAAGGdTsdT-3'; RNA with 2'-O-methyl and phosphorothioate modifications, case key not given here, as printed in the source, key not given here) | < 0.005 nM
